The source of these data is US20240251795A1, “METHOD FOR C[…] RESISTANT PESTS & COMPOUNDS THEREFOR” (priority 2021, published 2024).

≈ marks a conversion by molar mass, not a printed value.

Test system in the first data set: not given
Assay: not given
Settings: not given
As to `Cc1c(NC(=O)c2cc(C(F)(F)F)nn2-c2ncccc2Cl)c(C(N)=O)cc2c1OC(F)(F)O2`, the melting point lay within 223 to 225 °C.

Compound `NC(=O)c1cc2ccccc2c(Cl)c1NC(=O)c1cc(OCC(F)(F)C(F)(F)F)nn1-c1ncccc1Cl` registered a melting point of 264 to 266 °C.

The compound `Cc1c(NC(=O)c2cc(Br)nn2-c2ncccc2Cl)c(C(N)=O)cc2nn(C)cc12` had a melting point of 242 to 244 °C.

With `NC(=O)c1cc2cc(Br)ccc2c(Cl)c1NC(=O)c1cc(Cn2ncc3c(Cl)cccc32)nn1-c1ncccc1Cl`, the melting point lay within 149 to 157 °C.

Turning to `NC(=O)c1cc2cc(Br)ccc2c(Cl)c1NC(=O)c1cc(Cn2nnc(C(F)(F)F)n2)nn1-c1ncccc1Cl`, the melting point is 190 to 226 °C.

In turn, `NC(=O)c1cc2ccccc2c(Cl)c1NC(=O)c1cc(C(F)(F)F)nn1-c1ncccc1Cl` [P.10, N-(3-carbamoyl-1-chloro-2-naphthyl)-2-(3-chloro-2-pyridyl)-5-(trifluoromethyl)pyrazole-3-carboxamide] came in with a melting point of 155 to 157 °C.

Consider `NC(=O)c1cc2ccccc2c(Cl)c1NC(=O)c1cc(OCC(F)(F)F)nn1-c1ncccc1Cl` [P.11, N-(3-carbamoyl-1-chloro-2-naphthyl)-2-(3-chloro-2-pyridyl)-5-(2,2,2-trifluoroethoxy)pyrazole-3-carboxamide], for which the melting point lay within 158 to 160 °C.

`COc1cc(C(=O)Nc2c(C(N)=O)cc3ccccc3c2Cl)n(-c2ncccc2Cl)n1` [P.13, N-(3-carbamoyl-1-chloro-2-naphthyl)-2-(3-chloro-2-pyridyl)-5-methoxy-pyrazole-3-carboxamide] returned a melting point of 154 to 156 °C.

Take `NC(=O)c1nc2ccccc2c(Cl)c1NC(=O)c1cc(Br)nn1-c1ncccc1Cl` [P.18, 3-[[5-bromo-2-(3-chloro-2-pyridyl)pyrazole-3-carbonyl]amino]-4-chloro-quinoline-2-carboxamide]: the melting point lay in the range of 204 to 206 °C.

The compound `NC(=O)c1cc2ccccc2c(Cl)c1NC(=O)c1cc(OC(F)F)nn1-c1ncccc1Cl` [P.20, N-(3-carbamoyl-1-chloro-2-naphthyl)-2-(3-chloro-2-pyridyl)-5-(difluoromethoxy)pyrazole-3-carboxamide] came in with a melting point of 143 to 145 °C.

`NC(=O)c1cc2cc(Br)ccc2c(Br)c1NC(=O)c1cc(Cl)nn1-c1ncccc1Cl` [P.31, 5-chloro-2-(3-chloro-2-pyridyl)-N-(1,6-dibromo-3-carbamoyl-2-naphthyl)pyrazole-3-carboxamide] displayed a melting point of 170 to 172 °C.

Compound `Cc1ccc2c(C)c(NC(=O)c3cc(C(F)(F)F)nn3-c3ncccc3Cl)c(C(N)=O)cc2c1` [P.32, N-(3-carbamoyl-1,6-dimethyl-2-naphthyl)-2-(3-chloro-2-pyridyl)-5-(trifluoromethyl)pyrazole-3-carboxamide] displayed a melting point of 216 to 218 °C.

`Cc1c(NC(=O)c2cc(OCC(F)(F)F)nn2-c2ncccc2Cl)c(C(N)=O)cc2ncsc12` [P.44, 6-[[2-(3-chloro-2-pyridyl)-5-(2,2,2-trifluoroethoxy)pyrazole-3-carbonyl]amino]-7-methyl-1,3-benzothiazole-5-carboxamide] came in with a melting point of 135 to 140 °C.

The compound `Cc1nc2cc(C(N)=O)c(NC(=O)c3cc(Br)nn3-c3ncccc3Cl)c(C)c2s1` [P.45, 6-[[5-bromo-2-(3-chloro-2-pyridyl)pyrazole-3-carbonyl]amino]-2,7-dimethyl-1,3-benzothiazole-5-carboxamide] displayed a melting point of 175 to 180 °C.

Another data set has as its system Plutella xylostella resistant strain R4 (RyR mutation G4946E). Kind of data set: Resistant Plutella xylostella R4 (Diamond back moth) larvicide L1, feeding/contact. It counts as in vivo. The note with it: L1, artificial diet in 24-well plates, around 30 eggs; mortality vs untreated assessed 8 days after infestation. The procedure: Resistant Plutella xylostella R^4 (Diamond back moth) larvicide L1, feeding/contact 24-well microtiter plates with artificial diet were treated with aqueous test solutions prepared from 10′000 ppm DMSO stock solutions by pipetting. After drying, around 30 Plutella eggs were pipetted through a plastic stencil onto a gel blotting paper and the plate was closed with it. The samples were assessed for mortality in comparison to untreated samples 8 days after infestation.
CTPR was used as standard and a resistance factor of 242 was obtained for this strain
Plutella xylostella resistant strain R4 originated in the lab in 2021 from crossing the R1 strain with a lab-reared susceptible P. xylostella strain (SUS). R4 can be reared and tested on artificial diet and also carries the RyR mutation G4946E conferring resistance to diamides. The strain is selected approximately every two weeks with chlorantraniliprole.
For `CC(C)NC(=O)c1cc2nn(C)cc2c(Cl)c1NC(=O)c1cc(C(F)(F)F)nn1-c1ncccc1Cl`, the “Rate providing at least 80% control of the resistant strain of Plutella xylostella R4” value (from here on “Rate providing at least 80% control”) is given as greater than 50 ppm.

Turning to `CNC(=O)c1cc2nc(C)oc2c(C)c1NC(=O)c1cc(Br)nn1-c1ncccc1Cl`, the “Rate providing at least 80% control” value was greater than 50 ppm.

With `Cn1cc2c(Cl)c(NC(=O)c3cc(C(F)(F)F)nn3-c3ncccc3Cl)c(C(N)=O)cc2n1` [P.36, 4-chloro-5-[[2-(3-chloro-2-pyridyl)-5-(trifluoromethyl)pyrazole-3-carbonyl]amino]-2-methyl-indazole-6-carboxamide], the “Rate providing at least 80% control” value worked out at 12.5 ppm.

On to `Cc1nc2cc(C(N)=O)c(NC(=O)c3cc(Br)nn3-c3ncccc3Cl)c(C)c2o1` [P.46, 6-[[5-bromo-2-(3-chloro-2-pyridyl)pyrazole-3-carbonyl]amino]-2,7-dimethyl-1,3-benzoxazole-5-carboxamide], for which the “Rate providing at least 80% control” value is 12.5 ppm.

Staying with this data set, now noted: strain R4; CTPR used as standard.
`CNC(=O)c1cc(Cl)cc(C)c1NC(=O)c1cc(Br)nn1-c1ncccc1Cl` [CTPR, chlorantraniliprole, reference compound] yielded a resistance factor of 242.

The next data set has as its system multi-resistant Plutella xylostella larvae having the G4946E resistance mutation (strain R1). Kind of data set: Resistant Plutella xylostella R1 (Diamond Back Moth) Larvicide L3, Feeding/Contact. It counts as in vivo. The note with it: Plutella xylostella, in Brassica rapa, 96 h, read-out: Rate providing at least 80% control of the resistant strain of Plutella xylostella R1. The procedure: Resistant Plutella xylostella R1 (Diamond Back Moth) Larvicide L3, Feeding/Contact
Chinese cabbage plants were sprayed with diluted test solutions in an application chamber. Cut off leaves were placed into petri dishes with wetted filter paper and infested 1 day after application with 10 L3 multi-resistant Plutella xylostella larvae having the G4946E resistance mutation. Samples were assessed 4 days after infestation for mortality and growth regulation. CTPR was used as standard and a resistance factor of 146 was obtained for this strain.
Plutella xylostella resistant strain R1 originally collected from Taiwan in 2012 that carries the RyR mutation G4946E conferring resistance to diamides. The strain is reared on cabbage plants (Brassica aleracea) and selected approximately every two weeks with chlorantraniliprole.
With `CNC(=O)c1cc2cc(Br)ccc2c(Br)c1NC(=O)c1cc(C(F)(F)F)nn1-c1ncccc1Cl`, the EC80 came to 50 µg/mL (≈ 79.2 µM).

As for `CNC(=O)c1cc2cc(Br)ccc2c(Br)c1NC(=O)c1cc(OCC(F)(F)F)nn1-c1ncccc1Cl`, the EC80 stood at 12.5 µg/mL (≈ 18.9 µM).

`CC(C)NC(=O)c1cc2nn(C)cc2c(Cl)c1NC(=O)c1cc(C(F)(F)F)nn1-c1ncccc1Cl`: the EC80 was greater than 50 µg/mL.

`CNC(=O)c1cc2cc(Br)ccc2c(Br)c1NC(=O)c1cc(Br)nn1-c1ncccc1Cl`: the EC80 was greater than 200 µg/mL.

Take `CNC(=O)c1cc2cc(Cl)ccc2c(Cl)c1NC(=O)c1cc(Br)nn1-c1ncccc1Cl`: the EC80 amounted to 200 µg/mL (≈ 361 µM).

`O=C(NC1CC1)c1cc2cc(Br)ccc2c(Cl)c1NC(=O)c1cc(Br)nn1-c1ncccc1Cl`: the EC80 came to 200 µg/mL (≈ 320 µM).

Regarding `CC(C)NC(=O)c1cc2cc(Br)ccc2c(Cl)c1NC(=O)c1cc(Br)nn1-c1ncccc1Cl`, the EC80 stood at 200 µg/mL (≈ 319 µM).

For the compound `CNC(=O)c1cc2nc(C(F)(F)F)ccc2c(C)c1NC(=O)c1cc(C(F)F)nn1-c1ncccc1Cl`, the EC80 amounted to 200 µg/mL (≈ 371 µM).

As for `CNC(=O)c1cc2cc(Br)ccc2c(Cl)c1NC(=O)c1cc(C(F)(F)F)nn1-c1ncccc1Cl`, the EC80 was greater than 200 µg/mL.

Regarding `CNC(=O)c1cc2cc(Br)ccc2c(Cl)c1NC(=O)c1cc(Cl)nn1-c1ncccc1Cl`, the EC80 is greater than 200 µg/mL.

Turning to `NC(=O)c1cc2cc(Br)ccc2c(Br)c1NC(=O)c1cc(OCC(F)(F)F)nn1-c1ncccc1Cl` [P.1, 2-(3-chloro-2-pyridyl)-N-(1,6-dibromo-3-carbamoyl-2-naphthyl)-5-(2,2,2-trifluoroethoxy)pyrazole-3-carboxamide], the EC80 is 3 µg/mL (≈ 4.63 µM).

With `NC(=O)c1cc2cc(Br)ccc2c(Br)c1NC(=O)c1cc(C(F)(F)F)nn1-c1ncccc1Cl` [P.4, 2-(3-chloro-2-pyridyl)-N-(1,6-dibromo-3-carbamoyl-2-naphthyl)-5-(trifluoromethyl)pyrazole-3-carboxamide], the EC80 turned out to be 12.5 µg/mL (≈ 20.2 µM).

Take `Cc1c(NC(=O)c2cc(C(F)F)nn2-c2ncccc2Cl)c(C(N)=O)cc2nc(C(F)(F)F)ccc12` [P.7, 6-[[2-(3-chloro-2-pyridyl)-5-(difluoromethyl)pyrazole-3-carbonyl]amino]-5-methyl-2-(trifluoromethyl)quinoline-7-carboxamide]: the EC80 is 12.5 µg/mL (≈ 23.8 µM).

In the case of `NC(=O)c1cc2cc(Br)ccc2c(Br)c1NC(=O)c1cc(Br)nn1-c1ncccc1Cl` [P.8, 5-bromo-2-(3-chloro-2-pyridyl)-N-(1,6-dibromo-3-carbamoyl-2-naphthyl)pyrazole-3-carboxamide], the EC80 came to 50 µg/mL (≈ 79.6 µM).

Take `NC(=O)c1cc2cc(Cl)ccc2c(Cl)c1NC(=O)c1cc(Br)nn1-c1ncccc1Cl` [P.25, 5-bromo-N-(3-carbamoyl-1,6-dichloro-2-naphthyl)-2-(3-chloro-2-pyridyl)pyrazole-3-carboxamide]: the EC80 was 50 µg/mL (≈ 92.7 µM).

On to `NC(=O)c1cc2cc(Br)ccc2c(Cl)c1NC(=O)c1cc(Cl)nn1-c1ncccc1Cl` [P.26, N-(6-bromo-3-carbamoyl-1-chloro-2-naphthyl)-5-chloro-2-(3-chloro-2-pyridyl)pyrazole-3-carboxamide], for which the EC80 worked out at 50 µg/mL (≈ 92.7 µM).

As for `NC(=O)c1cc2cc(Br)ccc2c(Cl)c1NC(=O)c1cc(Br)nn1-c1ncccc1Cl` [P.27, 5-bromo-N-(6-bromo-3-carbamoyl-1-chloro-2-naphthyl)-2-(3-chloro-2-pyridyl)pyrazole-3-carboxamide], the EC80 turned out to be 50 µg/mL (≈ 85.6 µM).

With `NC(=O)c1cc2cc(Br)ccc2c(Cl)c1NC(=O)c1cc(C(F)(F)F)nn1-c1ncccc1Cl` [P.28, N-(6-bromo-3-carbamoyl-1-chloro-2-naphthyl)-2-(3-chloro-2-pyridyl)-5-(trifluoromethyl)pyrazole-3-carboxamide], the EC80 is 50 µg/mL (≈ 87.2 µM).

With `Cn1cc2c(Cl)c(NC(=O)c3cc(C(F)(F)F)nn3-c3ncccc3Cl)c(C(N)=O)cc2n1` [P.36, 4-chloro-5-[[2-(3-chloro-2-pyridyl)-5-(trifluoromethyl)pyrazole-3-carbonyl]amino]-2-methyl-indazole-6-carboxamide], the EC80 is 3 µg/mL (≈ 6.02 µM).

The same data set, now with this note: strain R1; CTPR used as standard.
For `CNC(=O)c1cc(Cl)cc(C)c1NC(=O)c1cc(Br)nn1-c1ncccc1Cl` [CTPR, chlorantraniliprole, reference compound], the resistance factor is 146.
